# According to patent US11680047B2, “Enhanced erythropoiesis and iron metabolism” (FibroGen, Inc., priority 2003, dated 2023):
# Columns and labels:
# rat model of ACD = test: Rat model of ACD (PG-PS), Experimental Series 1; type: in vivo; details: anemic rats, 60 mg/kg PO
# From the text: Anemia of chronic disease (ACD) is associated with various inflammatory conditions, including arthritis, neoplastic disease, and other disorders associated with chronic inflammation. A rat model of ACD was used to examine the effects of HIF stabilization using methods and compounds of the present invention on treating anemia associated with chronic disease. In this animal model, ACD is induced in rats by peptidoglycan-polysaccharide polymers. (See, e.g., Sartor et al. (1989) Infection and Immunity 57:1177-1185.) In this model, animals develop severe, acute anemia in the initial stages, followed by moderately severe chronic microcytic anemia in later stages.
# Female Lewis rats of approximately 160 grams were challenged with PG-PS 10S (Lee Laboratories, 15 μg/gm body weight, intra-peritoneal). PG-PS 10S contains purified peptidoglycan-polysaccharide polymers isolated from the cell wall of Streptococcus pyogenes, Group A, D58 strain. Arthritis and anemia were allowed to develop for 35 days. On day 35, blood samples (approximately 400 μl) were taken from the tail vein under general anesthesia (Isoflurane) for CBC and reticulocyte counts (performed by Quality Clinical Labs). Animals with a spun hematocrit level at or above 45% were considered non-anemic and were removed from the study.
# On day 35 following PG-PS injection, anemic animals received vehicle alone or were treated with compound A (60 mg/kg, PO) for two consecutive days per week for two weeks. Automated complete blood counts (CBC) were measured on day 35 (see above), 39, 42, and 49; serum iron levels were measured on day 49.
# [1] = tested on: Transferrin Receptor (TFR2); test: Microarray gene expression in Hep3B cells: transferrin receptor 2; type: cell-based, human; details: 2 μM
# Protocol: Hep3B cells (ATCC No. HB-8064) were grown in DMEM containing 8% fetal bovine serum. Hep3B cells were seeded into 6-well culture dishes at ˜500,000 cells per well. After 8 hours, the media was changed to DMEM containing 0.5% fetal bovine serum and the cells were incubated for an additional 16 hours. Compound B or compound D was added to the cells (2 μM final concentration) and the cells were incubated for various times. Control cells (no compound treatment, addition of DMSO alone) were harvested at 0, 6 and 48 hours. Harvested cells were assessed for cell viability (GUAVA), or added to RNA extraction buffer (RNeasy, Qiagen) and stored at −20° C. for subsequent RNA purification. Replicate microarrays were generated using RNA isolated from replicate experiments conducted on different days. Total RNA was isolated from cells using the RNeasy kit (Qiagen).
# RNA was precipitated in 0.3 M sodium acetate (pH 5.2), 50 ng/ml glycogen, and 2.5 volumes of ethanol for one hour at −20° C. Samples were centrifuged and pellets were washed with cold 80% ethanol, dried, and resuspend in water. Double stranded cDNA was synthesized using a T7-(dT)24 first strand primer (Affymetrix, Inc., Santa Clara Calif.) and the SUPERSCRIPT CHOICE system (Invitrogen) according to the manufacturer's instructions. The final cDNA was extracted with an equal volume of 25:24:1 phenol:chloroform:isoamyl alcohol using a PHASE LOCK GEL insert (Brinkman, Inc., Westbury N.Y.). The aqueous phase was collected and cDNA was precipitated using 0.5 volumes of 7.5 M ammonium acetate and 2.5 volumes of ethanol. Alternatively, cDNA was purified using the GENECHIP sample cleanup module (Affymetrix) according to the manufacturer's instructions.
# Biotin-labeled cRNA was synthesized from the cDNA in an in vitro […] (IVT) reaction using a BIOARRAY HighYield RNA transcript labeling kit (Enzo Diagnostics, Inc., Farmingdale N.Y.) according to the manufacturer's instructions. Final labeled product was purified and fragmented using the GENECHIP sample cleanup module (Affymetrix) according to the manufacturer's instructions.
# Hybridization cocktail was prepared by bringing […] probe to […] in 1× hybridization buffer (100 mM MES, 1 M [Na^+], 20 mM EDTA, 0.01% Tween 20), 100 µg/ml herring sperm DNA, 500 µg/ml acetylated BSA, 0.03 nM contol oligo B2 (Affymetrix), and 1×GENECHIP eukaryotic hybridization control (Affymetrix). The cocktail was sequentially incubated at 99° C. for 5 minutes and 45° C. for 5 minutes, and then centrifuged for 5 minutes. The Human Genome U133A array (Affymetrix) was brought to room temperature and then prehybridized with 1× hybridization buffer at 45° C. for 10 minutes with rotation. The buffer was then replaced with […] hybridization cocktail and the array was hybridized for 16 hours at 45° C. at 60 rpm with counter balance. Following hybridization, arrays were washed once with 6×SSPE, 0.1% Tween 20, and then washed and stained using R-phycoerythrin-conjugated streptavidin (Molecular Probes, Eugene Oreg.), goat anti-streptavidin antibody (Vector Laboratories, Burlingame Calif.), and a GENECHIP Fluidics Station 400 instrument (Affymetrix) according to the manufacturer's micro_1v1 protocol (Affymetrix). Arrays were analyzed using a GENEARRAY scanner (Affymetrix) and Microarray Suite software (Affymetrix).
# The Human Genome U133A array (Affymetrix) represents all sequences in the Human Unigene database build 133 (National Center for Biotechnology Information, Bethesda Md.), including approximately 14,500 well-characterized human genes.
# RNA quality was monitored by capillary electrophoresis (Agilent Bioanalyzer). Hybridization cocktails were prepared as described (Affymetrix), and hybridized to Affymetrix human U133A arrays containing 22,283 probe sets. Array performance was analyzed with Affymetrix MicroArray Suite (MAS) software and individual probe sets were assigned “present”, “marginal, and “absent” calls according to software defaults. […]
Compound,hematocrit levels (rat model of ACD; 5 days after initiation of treatment),hemoglobin levels (rat model of ACD; as early as 5 days (day 39)),Reticulocyte levels (rat model of ACD; day 39),hemoglobin levels (rat model of ACD; day 49),hematocrit levels (rat model of ACD; following a second dosing),red blood cell count (rat model of ACD; from day 39),"mean corpuscular volume (rat model of ACD; from day 39, vs non-treated anemic animals)",mean corpuscular hemoglobin levels (rat model of ACD; vs non-treated anemic animals),Transferrin Receptor (TFR2) fold-increase in mRNA levels above control ([1]; 1 hr) [fold],Transferrin Receptor (TFR2) fold-increase in mRNA levels above control ([1]; 3 hr) [fold],Transferrin Receptor (TFR2) fold-increase in mRNA levels above control ([1]; 6 hr) [fold],Transferrin Receptor (TFR2) fold-increase in mRNA levels above control ([1]; 12 hr) [fold],Transferrin Receptor (TFR2) fold-increase in mRNA levels above control ([1]; 24 hr) [fold],Transferrin Receptor (TFR2) fold-increase in mRNA levels above control ([1]; 48 hr) [fold]
"O=C(O)CNC(=O)c1nc(Cl)c2ccccc2c1O [Compound A, [(1-Chloro-4-hydroxy-isoquinoline-3-carbonyl)-amino]-acetic acid]",approximately 37%,increased hemoglobin levels in anemic animals,approximately 10 % of red cell counts,reaching a level comparable to control non-anemic animals,approximately 40%,increased red blood cell count in anemic animals,increased mean corpuscular volume,increased mean corpuscular hemoglobin levels,–,–,–,–,–,–
"O=C(O)CNC(=O)c1ncc2cc(Oc3ccccc3)ccc2c1O [Compound B, [(4-Hydroxy-7-phenoxy-isoquinoline-3-carbonyl)-amino]-acetic acid]",–,–,–,–,–,–,–,–,0.575,0.558,0.822,1.253,2.522,4.169
